From PubChem BioAssay (NCI)
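Method: 48-hour compound exposure of cells in 96-well plates, five concentrations, linear interpolation of endpoints. GI50 marks 50% less growth. Definition used: TGI = concentration required for complete inhibition of growth.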

Columns and labels:
Test in all cases: NCI tumour cell line growth inhibition, 48 h
[1] = test system: EKVX NSCLC
[2] = test system: HCT-15 colon
[3] = test system: LOX IMVI melanoma
[4] = test system: M14 melanoma
[5] = test system: MOLT-4 leukemia
[6] = test system: NCI-H226 lung
[7] = test system: SNB-19 CNS
[8] = test system: SNB-75 CNS
[9] = test system: SW-620 colon
[10] = test system: U251 CNS

Structure (SMILES)	TGI [1] [µM]	TGI [2] [µM]	TGI [3] [µM]	TGI [4] [µM]	TGI [5] [µM]	TGI [6] [µM]	TGI [7] [µM]	TGI [8] [µM]	TGI [9] [µM]	TGI [10] [µM]	GI50 [1] [µM]	GI50 [2] [µM]	GI50 [3] [µM]	GI50 [4] [µM]	GI50 [5] [µM]	GI50 [6] [µM]	GI50 [7] [µM]	GI50 [8] [µM]	GI50 [9] [µM]	GI50 [10] [µM]
COc1ccc(C(=O)C(Br)C(Br)C(=O)O)cc1 (stereo not drawn)	> 100	> 100	54	> 100	36.1	> 100	> 100	> 100	52.3	> 100										
Cc1cccc2c1NC(=O)[C@@]21[C@H](C(=O)c2ccccc2)[C@]2(C(=O)Nc3ccccc32)[C@H]2CCCN21	> 100	> 100	> 100	> 100	> 100	> 100	> 100	63.4	> 100	92	40.6	25.1	34.5	43.3	52.7	27.1	19.2	15	21.6	28
CC1=C(/C=C/C2=CC(=C\C(=O)O)/CC(C3=C(C)CCCC3(C)C)C2)C(C)(C)CCC1 (stereo not drawn)	23.4		27.6	28.5	21.7	23.9	27.7	28.8	29.1	23.1										
O=C1CCC2=C3C4CCCCC4C(=O)C4CCCC(OC2C1)C34 (stereo not drawn)	> 100	> 21.7		4.23	5.66	> 78.9	> 100	> 43.8	3.13	> 20.2	12.6	0.472	0.278	1.28	0.457	> 41.2	2.59	5.23	0.394	0.428
O=S1c2ccccc2N=C(c2ccc(Cl)cc2)CC1c1cccs1 (stereo not drawn)	> 100	29.1	25.9	37.4	98.7	> 100	45.2	> 100	27.5	28.9										
CC1(C)N=C(/C=N/O)C(C)(C)N1O	> 100	> 100	> 100	> 100	> 100	> 100	> 100	> 100	> 100	> 100										
CCC(c1ccc(OC)cc1)C(CC)c1ccc(O)c(CN2CCCC2)c1 (stereo not drawn)	19.3	10.7	4.74	5.08	6.77	24.7	17.2	15.5	9.07	5.67	5.07	3.09	2.04	2.15	2.54	5.9	4.39	3.28	2.99	2.25
CNC(=O)c1cncc(/C=C/c2c(C)cccc2C)c1	> 25	> 25	> 25	> 25	> 25	> 25	> 25	> 18.2	> 25	> 25	> 25	> 25	16.2	> 25	> 25	> 25	> 25	4.83	> 25	> 25
CC1=C(C(=O)NCC(C)O)CC(C(=O)NCC(C)O)=C(C)N1 (stereo not drawn)	> 100	> 100	> 100	> 100	> 100	> 100	> 100	> 100	> 100	> 100										
CC(C)(C)N1CC(OC(N)=O)C1	> 100	> 100	> 100	> 100	> 100	> 100	> 100	> 100	> 100	> 100	> 100	> 100	> 100	> 100	> 100	> 100	> 100	> 100	> 100	> 100
C[C@@H](Oc1cc(NS(=O)(=O)N2CCC2)nc(SCc2cccc(F)c2F)n1)[C@@H](O)CO	> 100	> 100	> 100	> 100	> 100	> 100	> 100	> 100	> 100	> 100	> 100	> 100	> 100	> 100	> 100	> 100	> 100	> 100	> 100	> 100
CCOC(=O)/C(C#N)=C\C=C1/C=CNC2=NCCN21	> 100	> 100	> 100	> 100	> 100	> 100	> 100	> 100	> 100	> 100										
N=C1C(c2nc3ccccc3s2)=C(O)CN1c1ccc(Cl)cc1Cl	85.5	22	41.2	> 100	> 100	40.7	80.9	> 100	> 100	29.9	29.9	3.65	14.8	23.7	22.7	16.9	26.3	13.1	36.7	10.1
NCC1OC(n2cnc3c(=O)[nH]c(N)nc32)C(O)C1O (stereo not drawn)	> 100	> 100	> 100	> 100	> 100	> 100	> 100	> 100	> 100	> 100										
Cc1ccc(NC(=O)CC/C(CC(=O)c2ccc(Cl)cc2)=N\NC(=O)C(=O)NN)cc1C	> 100	> 100	> 100	> 100	> 100	> 100	> 100	> 100	> 100	> 100										
C[C@]12CC(C#N)C(=O)C(O)=C1CC[C@@H]1C2CC[C@@]2(C)C1CC[C@@H]2O (stereo partly drawn)	> 100	> 100	> 100	> 100	> 100	> 100	> 100	63.1	> 100	> 100										
